Results reported in ChEMBL document CHEMBL3045481, “Insecticide-induced resurgence of the whitebacked planthopper Sogatella furcifera (Horvath) (Hemiptera: Delphacidae) on rice varieties with different levels of resistance” (Crop Prot, 2011).

Legend:
Oryza sativa [1] = experiment: Effect on total sugar level in Sogatella furcifera-sensitive Oryza sativa (rice) plant ARC6248 leaf sheath measured per gram of dry weight at 0.030% concentration (reference value: 25.98 mg/g dry wt); type: ADME, organism-based; settings: in vivo
Oryza sativa [2] = experiment: Effect on total sugar level in Sogatella furcifera-resistanct Oryza sativa (rice) plant PR116 leaf sheath measured per gram of dry weight at 0.030% concentration (reference value: 30.27 mg/g dry wt); type: ADME, organism-based; settings: in vivo
Sogatella furcifera [3] = experiment: Insecticidal activity against Sogatella furcifera on insect-sensitive rice plant ARC6248 assessed as growth index at 0.030% concentration (reference value: 2.38%); type: functional
Sogatella furcifera [4] = experiment: Insecticidal activity against Sogatella furcifera on insect-resistanct rice plant PR116 assessed as growth index at 0.030% concentration (reference value: 6.02%); type: functional
Sogatella furcifera [5] = experiment: Insecticidal activity against Sogatella furcifera on insect-sensitive rice plant ARC6248 assessed as nymphal duration at 0.030% concentration (reference value: 14.48 days); type: functional
Sogatella furcifera [6] = experiment: Insecticidal activity against Sogatella furcifera on insect-resistanct rice plant PR116 assessed as nymphal duration at 0.030% concentration (reference value: 11.75 days); type: functional
Sogatella furcifera [7] = experiment: Insecticidal activity against Sogatella furcifera on insect-sensitive rice plant ARC6248 assessed as resurgence ratio at 0.030% concentration; type: functional
Sogatella furcifera [8] = experiment: Insecticidal activity against Sogatella furcifera on insect-resistanct rice plant PR116 assessed as resurgence ratio at 0.030% concentration; type: functional
Oryza sativa [9] = experiment: Effect on total amino acids level in Sogatella furcifera-sensitive Oryza sativa (rice) plant ARC6248 leaf sheath measured per gram of dry weight at 0.030% concentration (reference value: 2.11 mg/g fresh wt); type: ADME, organism-based; settings: in vivo
Oryza sativa [10] = experiment: Effect on total amino acids level in Sogatella furcifera-sensitive Oryza sativa (rice) plant ARC6248 leaf blade measured per gram of dry weight at 0.030% concentration (reference value: 3.54 mg/g fresh wt); type: ADME, organism-based; settings: in vivo
Oryza sativa [11] = experiment: Effect on total amino acids level in Sogatella furcifera-resistanct Oryza sativa (rice) plant PR116 leaf blade measured per gram of dry weight at 0.030% concentration (reference value: 3.91 mg/g […]); type: ADME, organism-based; settings: in vivo
Oryza sativa [12] = experiment: Effect on total protein level in Sogatella furcifera-sensitive Oryza sativa (rice) plant ARC6248 leaf blade measured per gram of dry weight at 0.030% concentration (reference value: 17.67 mg/g […]); type: ADME, organism-based; settings: in vivo
Oryza sativa [13] = experiment: Effect on total phenols level in Sogatella furcifera-resistanct Oryza sativa (rice) plant PR116 leaf blade measured per gram of dry weight at 0.030% concentration (reference value: 8.08 mg/g dry wt); type: ADME, organism-based; settings: in vivo
Oryza sativa [14] = experiment: Effect on reducing sugar level in Sogatella furcifera-sensitive Oryza sativa (rice) plant ARC6248 leaf blade measured per gram of dry weight at 0.030% concentration (reference value: 8.37 mg/g dry wt); type: ADME, organism-based; settings: in vivo
Oryza sativa [15] = experiment: Effect on total protein level in Sogatella furcifera-resistanct Oryza sativa (rice) plant PR116 leaf blade measured per gram of dry weight at 0.030% concentration (reference value: 21.67 mg/g fresh wt); type: ADME, organism-based; settings: in vivo
Oryza sativa [16] = experiment: Effect on total phenols level in Sogatella furcifera-sensitive Oryza sativa (rice) plant ARC6248 leaf blade measured per gram of dry weight at 0.030% concentration (reference value: 17.08 mg/g dry wt); type: ADME, organism-based; settings: in vivo
Oryza sativa [17] = experiment: Effect on reducing sugar level in Sogatella furcifera-resistanct Oryza sativa (rice) plant PR116 leaf blade measured per gram of dry weight at 0.030% concentration (reference value: 9.35 mg/g dry wt); type: ADME, organism-based; settings: in vivo
Oryza sativa [18] = experiment: Effect on total sugar level in Sogatella furcifera-sensitive Oryza sativa (rice) plant ARC6248 leaf blade measured per gram of dry weight at 0.030% concentration (reference value: 34.05 mg/g dry wt); type: ADME, organism-based; settings: in vivo
Oryza sativa [19] = experiment: Effect on total sugar level in Sogatella furcifera-resistanct Oryza sativa (rice) plant PR116 leaf blade measured per gram of dry weight at 0.030% concentration (reference value: 36.16 mg/g dry wt); type: ADME, organism-based; settings: in vivo
Oryza sativa [20] = experiment: Effect on total amino acids level in Sogatella furcifera-resistanct Oryza sativa (rice) plant PR116 leaf sheath measured per gram of dry weight at 0.030% concentration (reference value: 2.58 mg/g […]); type: ADME, organism-based; settings: in vivo
Oryza sativa [21] = experiment: Effect on total protein level in Sogatella furcifera-sensitive Oryza sativa (rice) plant ARC6248 leaf sheath measured per gram of dry weight at 0.030% concentration (reference value: 6.11 mg/g […]); type: ADME, organism-based; settings: in vivo
Oryza sativa [22] = experiment: Effect on total protein level in Sogatella furcifera-resistanct Oryza sativa (rice) plant PR116 leaf sheath measured per gram of dry weight at 0.030% concentration (reference value: 7.06 mg/g fresh wt); type: ADME, organism-based; settings: in vivo
Oryza sativa [23] = experiment: Effect on total phenols level in Sogatella furcifera-sensitive Oryza sativa (rice) plant ARC6248 leaf sheath measured per gram of dry weight at 0.030% concentration (reference value: 12.75 mg/g dry wt); type: ADME, organism-based; settings: in vivo
Sogatella furcifera [24] = experiment: Insecticidal activity against Sogatella furcifera on insect-sensitive rice plant ARC6248 assessed as nymphal survival at 0.030% concentration (reference value: 34.17%); type: functional
Sogatella furcifera [25] = experiment: Insecticidal activity against Sogatella furcifera on insect-resistanct rice plant PR116 assessed as nymphal survival at 0.030% concentration (reference value: 70.28%); type: functional
Oryza sativa [26] = experiment: Effect on total phenols level in Sogatella furcifera-resistanct Oryza sativa (rice) plant PR116 leaf sheath measured per gram of dry weight at 0.030% concentration (reference value: 5.75 mg/g dry wt); type: ADME, organism-based; settings: in vivo
Oryza sativa [27] = experiment: Effect on reducing sugar level in Sogatella furcifera-sensitive Oryza sativa (rice) plant ARC6248 leaf sheath measured per gram of dry weight at 0.030% concentration (reference value: 6.41 mg/g dry wt); type: ADME, organism-based; settings: in vivo
Oryza sativa [28] = experiment: Effect on reducing sugar level in Sogatella furcifera-resistanct Oryza sativa (rice) plant PR116 leaf sheath measured per gram of dry weight at 0.030% concentration (reference value: 7.50 mg/g dry wt); type: ADME, organism-based; settings: in vivo

COP(=S)(OC)Oc1ccc([N+](=O)[O-])cc1 [METHYL PARATHIONE]
Activity (Oryza sativa [1]): 33.21 mg | Activity (Oryza sativa [2]): 33.48 mg | growth inhibition (GI) (Sogatella furcifera [3]): 2.87% | growth inhibition (GI) (Sogatella furcifera [4]): 6.76% | Time (Sogatella furcifera [5]): 14.35 days | Time (Sogatella furcifera [6]): 11.57 days | Ratio (Sogatella furcifera [7]): 1.26 | Ratio (Sogatella furcifera [8]): 1.69 | Activity (Oryza sativa [9]): 2.86 mg | Activity (Oryza sativa [10]): 4.04 mg | Activity (Oryza sativa [11]): 4.53 mg | Activity (Oryza sativa [12]): 21.17 mg | Activity (Oryza sativa [13]): 7.5 mg | Activity (Oryza sativa [14]): 10.54 mg | Activity (Oryza sativa [15]): 23.33 mg | Activity (Oryza sativa [16]): 16.08 mg | Activity (Oryza sativa [17]): 14.89 mg | Activity (Oryza sativa [18]): 39.37 mg | Activity (Oryza sativa [19]): 38.3 mg | Activity (Oryza sativa [20]): 3.64 mg | Activity (Oryza sativa [21]): 8.33 mg | Activity (Oryza sativa [22]): 8.67 mg | Activity (Oryza sativa [23]): 11.08 mg | Survival (Sogatella furcifera [24]): 40.83% | Survival (Sogatella furcifera [25]): 77.78% | Activity (Oryza sativa [26]): 5.58 mg | Activity (Oryza sativa [27]): 9.89 mg | Activity (Oryza sativa [28]): 11.63 mg
